Laboratory results published in patent publication US12187709B2 (Genentech, Inc., priority 2021, dated 2025).

What was measured:
Cbl-b = Cbl-b (Homo sapiens (Human), UniProt Q13191); test: Cbl-b LCK Ub TR-FRET assay (Cbl-b Lck HTRF); format: biochemical; details: for IC50: Cbl-b LCK Ub TR-FRET
How it was run: (§1)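 Detection reagents added, brief spin, 20 min RT. IC50 fit normalized to no-LCK (low) and DMSO (high) controls.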

[1] = biological target: Human Cbl-b (residues 40-426) (Homo sapiens (Human), UniProt Q13191); test: Cbl-b SPR assay; format: binding; details: for Fold of selectivity: C-cbl SPR Kd vs Cbl-b SPR Kd; for Kd: SPR, 20° C.
Sequence of Human Cbl-b (residues 40-426) (Q13191 40-426): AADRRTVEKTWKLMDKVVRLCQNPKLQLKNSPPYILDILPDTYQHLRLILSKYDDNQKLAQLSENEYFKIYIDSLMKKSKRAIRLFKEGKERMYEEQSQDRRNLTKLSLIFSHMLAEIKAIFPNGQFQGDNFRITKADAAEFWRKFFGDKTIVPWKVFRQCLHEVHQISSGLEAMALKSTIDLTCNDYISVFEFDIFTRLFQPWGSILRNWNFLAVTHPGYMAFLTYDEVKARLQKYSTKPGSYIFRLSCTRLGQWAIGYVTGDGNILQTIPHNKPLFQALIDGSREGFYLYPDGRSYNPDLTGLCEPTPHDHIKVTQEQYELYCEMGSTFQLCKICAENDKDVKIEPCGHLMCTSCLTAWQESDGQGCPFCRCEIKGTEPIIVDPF
How it was run: (§2)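 Protein captured at 1300-1500 RU; compounds run as 6-point 2-fold series in multi-cycle kinetics (60 s contact, 40 μl/min, 120-1200 s dissociation), fitted 1:1. For slow binders, kd came from chaser-compound occupancy over time, fixed in a single-cycle fit (5 concentrations, top 500 nM).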

c-Cbl (residues 47-435) = c-Cbl (residues 47-435) (Homo sapiens (Human), UniProt P22681); test: c-Cbl SPR assay; format: binding; details: 20° C.
Sequence of c-Cbl (residues 47-435) (P22681 47-435): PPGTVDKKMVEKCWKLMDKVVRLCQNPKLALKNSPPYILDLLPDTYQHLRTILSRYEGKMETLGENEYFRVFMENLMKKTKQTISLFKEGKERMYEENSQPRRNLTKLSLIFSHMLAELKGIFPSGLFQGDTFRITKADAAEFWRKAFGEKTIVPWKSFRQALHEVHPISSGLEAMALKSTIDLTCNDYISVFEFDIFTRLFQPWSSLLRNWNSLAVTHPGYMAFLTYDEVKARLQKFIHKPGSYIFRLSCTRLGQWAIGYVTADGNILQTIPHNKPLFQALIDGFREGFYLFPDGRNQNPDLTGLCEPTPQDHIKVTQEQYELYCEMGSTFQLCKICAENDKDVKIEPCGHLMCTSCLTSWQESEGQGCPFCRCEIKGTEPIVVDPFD
How it was run: as §2

c-Cbl = c-Cbl (Homo sapiens (Human), UniProt P22681); test: C-Cbl LCK Ub TR-FRET assay (C-cbl Lck HTRF); format: biochemical
Sequence of c-Cbl (P22681 47-435): as above
How it was run: as §1

[2] = ratio C-cbl Lck HTRF IC50 / Cbl-b Lck HTRF IC50

Sequence of Cbl-b (Q13191 40-426): as the sequence (Q13191 40-426) above

SMILES	IC50 (Cbl-b) [nM]	fold-selectivity (Cbl-b over C-cbl) (Cbl-b; [2])	Fold of selectivity [1] [×]	Kd [1] [nM]	Kd (c-Cbl (residues 47-435)) [nM]	IC50 (c-Cbl) [nM]	IC50 (Cbl-b; Example 121) [nM]	(fold-selectivity) Cbl-b and C-Cbl Selectivity (Cbl-b; [2]) [x]
CO[C@H]1C[C@](c2cc(NC3CCC3)cc(N3Cc4c(cc(CNC5(C)CCC5)cc4C(F)(F)F)C3=O)c2)(c2nncn2C)C1 [Compound 211, 2-(3-(cyclobutylamino)-5-((1r,3r)-3-methoxy-1-(4-methyl-4H-1,2,4-triazol-3-yl)cyclobutyl)phenyl)-6-(((1-methylcyclobutyl)amino)methyl)-4-(trifluoromethyl)isoindolin-1-one]	15	4.0x	14	3.5	49	60	–	–
Cn1cnnc1[C@H](C[C@@H]1COCCO1)c1cccc(N2Cc3c(cc(CNC4(C)CCC4)cc3C(F)(F)F)C2=O)c1 [Compound 297, 2-(3-((R)-2-((R)-1,4-dioxan-2-yl)-1-(4-methyl-4H-1,2,4-triazol-3-yl)ethyl)phenyl)-6-(((1-methylcyclobutyl)amino)methyl)-4-(trifluoromethyl)isoindolin-1-one]	1300	1.8x	2.0	2800	5800	2300	–	–
C[C@H]1CCCN(Cc2cc3c(c(C(F)(F)F)c2)CN(c2cccc(C4(c5nncn5C)CC5(COC5)C4)c2)C3=O)C1 (single isomer, unassigned) [Compound 66]	25	(2.5x)	5.0	16	81	62.5	–	–
CO[C@H]1C[C@@](c2cc(OC(C)C)cc(N3Cc4c(cc(CNC5(C)CCC5)cc4C(F)(F)F)C3=O)c2)(c2nncn2C)C1 [Compound 206, 2-(3-isopropoxy-5-((1s,3s)-3-methoxy-1-(4-mehtyl-4H-1,2,4-triazol-3-yl)cyclobutyl)phenyl)-6-(((1-methylcyclobutyl)amino)methyl)-4-(trifluoromethyl)isoindolin-1-one]	34	2.4x	2.4	12	30	82	–	–
Cn1cnnc1[C@]1(c2cccc(N3Cc4c(cc(CNC5(C)CCC5)cc4C(F)F)C3=O)c2)C[C@@H](Cl)C1 [Compound 447, 2-(3-((1r,3r)-3-chloro-1-(4-methyl-4H-1,2,4-triazol-3-yl)cyclobutyl)phenyl)-4-(difluoromethyl)-6-(((1-methylcyclobutyl)amino)methyl)isoindolin-1-one]	–	–	5.3	0.3	1.6	6.2	4.5	1.4
CC(=O)C1CC([C@@H](c2cccc(N3Cc4c(cc(CNC5(C)CCC5)cc4C(F)(F)F)C3=O)c2)c2nncn2C)C1 (single isomer, unassigned) [Compound 384]	24	2.8x	5.6	7	39	66	–	–
C[C@H](NC1(C)CCC1)c1cc2c(c(C(F)(F)F)c1)CN(c1cccc(C3(c4nncn4C)CC(F)(F)C3)c1)C2=O (single isomer, unassigned) [Compound 173]	20	2.2x	6.3	7.9	49	45	–	–
CO[C@H]1C[C@H]([C@@H](c2cccc(N3Cc4c(cc(CN5CCN(C)C[C@@H]5C(C)C)cc4C(F)(F)F)C3=O)c2)c2nncn2C)C1 (single isomer, unassigned) [Compound 15]	1900	(1.6x)	14	770	11000	4900	–	–
